# Experimental data as given in patent US7166688B1, “Chelation compositions” (LidoChem, Inc., priority 2000, dated 2007).
# Experiments:
# [1] = tested on: pepper plants; assay: IDS versus EDTA chelates applied to the soil of pepper plants, tissue analysis; type: in vivo
# Protocol: Below is the protocol and tissue analysis for the soil-applied iminodisuccinate and EDTA chelated mineral salts. Treatments: Control—no fertilizer 15-30-15 (fertilizer) alone 15-30-15 plus Cu IDS […] 15-30-15 plus Mn IDS […] 15-30-15 plus Zn IDS […] The standard fertilizer contained no micronutrients. Fertilizer was Hyponex 15-30-15. Each treatment was replicated 3 times. Soil treatments were applied as 50 ml per of the dilute blend of this invention. The pepper plants were transplanted into 1-gallon containers and grown until a suitable size. Plants were treated with the soil-applied chelate. Tissue samples were taken 30 days after the soil treatment had been applied. […] One gallon of fertilizer was poured over three replications of each set in the trial.
# [2] = tested on: corn seed, NCE Hybrid 5817; assay: Corn seed germination with IDS acid, root hairs; type: in vivo; conditions: 10 corn seed on germination tray, 1/10th of a gram of IDS acid, imbibed with water, day 5; control: root hairs only on short segments
# Description: A 34% tetrasodium iminodisuccinate solution was protonated with concentrated HCl and crystalized under refrigeration in a dilute water/ethanol. The crystals were then filtered out of the solution and the residual sodium chloride was rinsed from the crystals with ice water. The IDS crystals were then dried. Two sets of 10 corn seed, NCE Hybrid 5817, were then placed on germination trays. One tray had 1/10th of a gram of the IDS acid placed in the center of the tray. The seeds were then imbibed with water. The seeds germinated as expected on day 2. On day 5 the root hairs began to show on the seedlings treated with the IDS. Photos were taken. This procedure was repeated on three occasions with simular results. There were also root hairs on the control set, however, the root hairs were only on short segments of the roots. […] This would be a substantial increase in the root surface area.
smiles,measurement,setting,value
"O=C(O)CC(NC(CC(=O)O)C(=O)O)C(=O)O (stereo not drawn) [IDS, iminodisuccinic acid]","copper in tissue, TREATED","[1]; soil applied with 15-30-15, tissue 30 days after treatment, control 8.0",10.8
same,TREATED (dry weight),"[1]; soil applied, control 4.8",6.4
same,TREATED DRY,"[1]; soil applied, dry weight, CONTROL DRY 4.8",6.8
same,"copper in tissue, TREATED ADJUSTED","[1]; soil applied, tissue level times dry weight, control adjusted 38.08",68.79
same,"copper in tissue, CHANGE IN (adjusted)","[1]; soil applied, treated adjusted minus control adjusted 38.08",30.72
same,CHANGE IN WEIGHT,"[1]; soil applied, treated dry minus control dry 4.8",2.09
same,"copper in tissue, % CHANGE (adjusted)","[1]; soil applied, versus control adjusted 38.08",81%
same,% CHANGE (dry weight),"[1]; soil applied, versus control dry 4.8",44%
same,root hairs on seedlings,[2],root hairs appear along the entire length of radical and lateral roots
